23 compounds from patent US8637510B2, “Morpholinothiazoles as alpha 7 positive allosteric modulators” (Janssen Pharmaceutica NV, priority 2009, dated 2014) can be followed below.

The assay deals with T1, human alpha 7-wt nAChR (Homo sapiens, UniProt P36544).
T1 construct: expressed in transfected cells
As to the kind of experiment: Ca2+ flux imaging (FDSS) (Protocol B). It is filed as cell-based. As to conditions: for EC50: potentiation of 100 μM choline, compounds 0.01 μM to 30 μM, read-out: a7-PAM-G_[33]_pEC50 pEC50 (converted); for Emax: efficacy of 100 μM choline defined as 100% in the absence of a PAM, read-out: a7-PAM-G_[33]_Eff_Curve_FI % Efficacy. The protocol: Ca^2+ Flux Imaging (FDSS) (Protocol B)
• Hanks buffered saline solution (HBSS, Invitrogen, Belgium), supplemented with 10 mM HEPES (Invitrogen, Belgium), CaCl2 to a final concentration of 5 mM, 0.1% Bovine serum albumin (Sigma-Aldrich NV, Belgium). b) Calcium-Sensitive Dye—Fluo-4AM • Fluo-4AM (Molecular Probes, USA) was dissolved in DMSO containing 10% Pluronic acid (Molecular Probes, USA) to give a stock solution which was diluted in assay buffer supplemented with 5 mM probenicid (Sigma, Aldrich NV, Belgium) to give a final concentration of 2 μM. c) 384-Well Plates • Black-sided, transparent bottomed 384 well plates coated with poly-D-lysine, PDL pre-coated (Corning, Incorporated, USA) d) Calcium Flux Measurement • A Functional drug screening system (FDSS, Hamamatsu) was used to measure intracellular free-calcium flux signals. Method
Monolayers of human alpha 7-wt nAChR-expressing cells were grown in black-sided, transparent bottomed 384 well plates coated with PDL for 24 hours prior to loading with a fluorescent calcium indicator, fluo-4AM for up to 120 minutes.
PAM activity was detected in real time by applying the compounds to be tested to the loaded cells along with an alpha 7 nicotinic receptor agonist during constant monitoring of cellular fluorescence in a FDSS. Compounds giving peak fluorescent responses greater than the response due to agonist alone, were considered to be alpha 7 nAChR PAMs. The alpha 7 nicotinic receptor agonist was choline, applied at a sub-maximal concentration of 100 μM. In a further setting of the present invention the compounds were applied prior to the alpha 7 nicotinic receptor agonist, in a particular 10 minutes prior to the agonist.
A control response to choline was calculated on each plate from the difference in peak in fluorescence in wells receiving either choline or assay buffer alone. Compounds of the present invention were tested at a concentration range from 0.01 μM to 30 μM. Compounds were considered to have an interesting activity when they potentiated the choline signal at least with 200% when tested at a concentration of 30 μM (the efficacy of 100 μM choline was defined as 100% in the absence of a PAM). An EC50 (or pEC50) was determined as a concentration relating to half the maximal effect, when a clear sigmoidal curve with top plateau was obtained.
On the technique in general: Calcium assays in cells follow changes in intracellular calcium, usually with a dye or a luminescent sensor.

T1 sequence (P36544 23-502): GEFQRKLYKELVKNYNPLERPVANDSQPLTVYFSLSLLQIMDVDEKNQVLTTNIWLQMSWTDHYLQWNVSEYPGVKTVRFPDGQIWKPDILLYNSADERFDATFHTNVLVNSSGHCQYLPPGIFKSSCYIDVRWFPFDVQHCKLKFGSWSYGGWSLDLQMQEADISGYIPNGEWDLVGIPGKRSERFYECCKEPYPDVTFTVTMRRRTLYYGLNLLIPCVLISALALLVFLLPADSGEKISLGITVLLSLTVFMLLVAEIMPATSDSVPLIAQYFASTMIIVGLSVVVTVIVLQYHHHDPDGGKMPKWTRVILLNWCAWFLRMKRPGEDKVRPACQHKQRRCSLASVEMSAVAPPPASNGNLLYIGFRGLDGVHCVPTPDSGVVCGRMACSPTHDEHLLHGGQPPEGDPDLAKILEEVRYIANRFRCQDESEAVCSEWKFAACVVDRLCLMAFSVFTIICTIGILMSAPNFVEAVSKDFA

Take `Cc1cc(-c2sc(N3C[C@@H](C)O[C@@H](C)C3)nc2CNC(=O)c2cc(C(C)C)on2)cc(C)n1` [Compound 135, N-[[2-[(2R,6S)-2,6-dimethyl-4-morpholinyl]-5-(2,6-dimethyl-4-pyridinyl)-4-thiazolyl]methyl]-5-(1-methylethyl)-3-isoxazolecarboxamide]: the EC50 is 0.537 µM. Still for that read-out and setting: the same measure for `Cc1cc(-c2sc(N3C[C@@H](C)O[C@@H](C)C3)nc2CNC(=O)c2cc(C)nn2C)cc(C)n1` [Compound 136, N-[[2-[(2R,6S)-2,6-dimethyl-4-morpholinyl]-5-(2,6-dimethyl-4-pyridinyl)-4-thiazolyl]methyl]-1,3-dimethyl-1H-pyrazole-5-carboxamide]: 1.95 µM. For `Cc1cc(-c2sc(N3C[C@@H](C)O[C@@H](C)C3)nc2CNC(=O)c2cnccn2)cc(C)n1` [Compound 138, N-[[2-[(2R,6S)-2,6-dimethyl-4-morpholinyl]-5-(2,6-dimethyl-4-pyridinyl)-4-thiazolyl]methyl]-2-pyrazinecarboxamide], the Emax was 837% and the EC50 was 4.68 µM.

On to `Cc1cc(-c2sc(N3C[C@@H](C)O[C@@H](C)C3)nc2CNC(=O)c2cc(C)n(C(C)(C)C)n2)cc(C)n1` [Compound 139, 1-(1,1-dimethylethyl)-N-[[2-[(2R,6S)-2,6-dimethyl-4-morpholinyl]-5-(2,6-dimethyl-4-pyridinyl)-4-thiazolyl]methyl]-5-methyl-1H-pyrazole-3-carboxamide], for which the Emax is 699% and the EC50 was 0.617 µM. Turning to `COc1cccc(C(=O)NCc2nc(N3C[C@@H](C)O[C@@H](C)C3)sc2-c2cc(C)nc(C)c2)n1` [Compound 140, N-[[2-[(2R,6S)-2,6-dimethyl-4-morpholinyl]-5-(2,6-dimethyl-4-pyridinyl)-4-thiazolyl]methyl]-6-methoxy-2-pyridinecarboxamide], the Emax came out at 451% and the EC50 is 1.2 µM. Consider `Cc1cc(-c2sc(N3C[C@@H](C)O[C@@H](C)C3)nc2CNC(=O)c2ccoc2)cc(C)n1` [Compound 141, N-[[2-[(2R,6S)-2,6-dimethyl-4-morpholinyl]-5-(2,6-dimethyl-4-pyridinyl)-4-thiazolyl]methyl]-3-furancarboxamide], for which the Emax was 764% and the EC50 is 0.692 µM. Turning to `Cc1cc(-c2sc(N3C[C@@H](C)O[C@@H](C)C3)nc2CNC(=O)c2ccn(C)n2)cc(C)n1` [Compound 142, N-[[2-[(2R,6S)-2,6-dimethyl-4-morpholinyl]-5-(2,6-dimethyl-4-pyridinyl)-4-thiazolyl]methyl]-1-methyl-1H-pyrazole-3-carboxamide], the Emax is 669%.

Take `Cc1cc(-c2sc(N3C[C@@H](C)O[C@@H](C)C3)nc2CNC(=O)c2cc(C(C)(C)C)on2)cc(C)n1` [Compound 143, 5-(1,1-dimethylethyl)-N-[[2-[(2R,6S)-2,6-dimethyl-4-morpholinyl]-5-(2,6-dimethyl-4-pyridinyl)-4-thiazolyl]methyl]-3-isoxazolecarboxamide]: the EC50 is 0.891 µM. The same measure, in the same setting: the same measure for `Cc1cc(-c2sc(N3C[C@@H](C)O[C@@H](C)C3)nc2CNC(=O)CCCC(F)(F)F)cc(C)n1` [Compound 145, N-[[2-[(2R,6S)-2,6-dimethyl-4-morpholinyl]-5-(2,6-dimethyl-4-pyridinyl)-4-thiazolyl]methyl]-5,5,5-trifluoro-pentanamide]: 0.148 µM. The same measure, in the same setting: the same measure for `Cc1cc(-c2sc(N3C[C@@H](C)O[C@@H](C)C3)nc2CNC(=O)c2ccoc2C)cc(C)n1` [Compound 151, N-[[2-[(2R,6S)-2,6-dimethyl-4-morpholinyl]-5-(2,6-dimethyl-4-pyridinyl)-4-thiazolyl]methyl]-2-methyl-3-furancarboxamide]: 0.871 µM; for `Cc1cc(-c2sc(N3C[C@@H](C)O[C@@H](C)C3)nc2CNC(=O)c2ocnc2C)cc(C)n1` [Compound 152, N-[[2-[(2R,6S)-2,6-dimethyl-4-morpholinyl]-5-(2,6-dimethyl-4-pyridinyl)-4-thiazolyl]methyl]-4-methyl-5-oxazolecarboxamide]: 6.92 µM; for `Cc1cc(-c2sc(N3C[C@@H](C)O[C@@H](C)C3)nc2CNC(=O)c2scnc2C)cc(C)n1` [Compound 153, N-[[2-[(2R,6S)-2,6-dimethyl-4-morpholinyl]-5-(2,6-dimethyl-4-pyridinyl)-4-thiazolyl]methyl]-4-methyl-5-thiazolecarboxamide]: 2.75 µM. On the same count and under the same terms, the same measure for `Cc1cc(-c2sc(N3C[C@@H](C)O[C@@H](C)C3)nc2CNC(=O)c2snnc2C)cc(C)n1` [Compound 155, N-[[2-[(2R,6S)-2,6-dimethyl-4-morpholinyl]-5-(2,6-dimethyl-4-pyridinyl)-4-thiazolyl]methyl]-4-methyl-1,2,3-thiadiazole-5-carboxamide]: 0.0759 µM. On to `COc1nc(C)c(C(=O)NCc2nc(N3C[C@@H](C)O[C@@H](C)C3)sc2-c2cc(C)nc(C)c2)s1` [Compound 158, N-[[2-[(2R,6S)-2,6-dimethyl-4-morpholinyl]-5-(2,6-dimethyl-4-pyridinyl)-4-thiazolyl]methyl]-2-methoxy-4-methyl-5-thiazolecarboxamide], for which the Emax was determined as 951% and the EC50 was 1.58 µM. Regarding `Cc1cc(-c2sc(N3C[C@@H](C)O[C@@H](C)C3)nc2CNC(=O)c2cc(C)sc2C)cc(C)n1` [Compound 162, N-[[2-[(2R,6S)-2,6-dimethyl-4-morpholinyl]-5-(2,6-dimethyl-4-pyridinyl)-4-thiazolyl]methyl]-2,5-dimethyl-3-thiophenecarboxamide], the Emax is 842% and the EC50 is 0.813 µM. For `Cc1cc(-c2sc(N3C[C@@H](C)O[C@@H](C)C3)nc2CNC(=O)c2ccc(C(F)(F)F)nc2C)cc(C)n1` [Compound 165, N-[[2-[(2R,6S)-2,6-dimethyl-4-morpholinyl]-5-(2,6-dimethyl-4-pyridinyl)-4-thiazolyl]methyl]-2-methyl-6-(trifluoromethyl)-3-pyridinecarboxamide], the EC50 was 0.049 µM. On the same count and under the same terms, the same measure for `Cc1cc(CC(=O)NCc2nc(N3C[C@@H](C)O[C@@H](C)C3)sc2-c2cc(C)nc(C)c2)on1` [Compound 167, N-[[2-[(2R,6S)-2,6-dimethyl-4-morpholinyl]-5-(2,6-dimethyl-4-pyridinyl)-4-thiazolyl]methyl]-3-methyl-5-isoxazoleacetamide]: 1.23 µM. As to `Cc1cc(-c2sc(N3C[C@@H](C)O[C@@H](C)C3)nc2CNC(=O)c2cn(C)nc2C)cc(C)n1` [Compound 169, N-[[2-[(2R,6S)-2,6-dimethyl-4-morpholinyl]-5-(2,6-dimethyl-4-pyridinyl)-4-thiazolyl]methyl]-1,3-dimethyl-1H-pyrazole-4-carboxamide], the Emax turned out to be 671%. In the case of `Cc1cc(-c2sc(N3C[C@@H](C)O[C@@H](C)C3)nc2CNC(=O)CC#N)cc(C)n1` [Compound 170, 2-cyano-N-[[2-[(2R,6S)-2,6-dimethyl-4-morpholinyl]-5-(2,6-dimethyl-4-pyridinyl)-4-thiazolyl]methyl]-acetamide], the Emax is 499% and the EC50 was 3.09 µM. On the same counts, the results for `Cc1cc(-c2sc(N3C[C@@H](C)O[C@@H](C)C3)nc2CNC(=O)c2oc(C)cc2C)cc(C)n1` [Compound 173, N-[[2-[(2R,6S)-2,6-dimethyl-4-morpholinyl]-5-(2,6-dimethyl-4-pyridinyl)-4-thiazolyl]methyl]-3,5-dimethyl-2-furancarboxamide] are 425% and 0.776 µM. `Cc1cc(-c2sc(N3C[C@@H](C)O[C@@H](C)C3)nc2CNC(=O)C2(O)CC2)cc(C)n1` [Compound 176, N-[[2-[(2R,6S)-2,6-dimethyl-4-morpholinyl]-5-(2,6-dimethyl-4-pyridinyl)-4-thiazolyl]methyl]-1-hydroxy-cyclopropanecarboxamide]: the Emax worked out at 149%. Still for that read-out and setting: the same measure for `Cc1cc(-c2sc(N3C[C@@H](C)O[C@@H](C)C3)nc2CNC(=O)C(F)(F)F)cc(C)n1` [Compound 177, N-[[2-[(2R,6S)-2,6-dimethyl-4-morpholinyl]-5-(2,6-dimethyl-4-pyridinyl)-4-thiazolyl]methyl]-2,2,2-trifluoro-acetamide]: 26%. Regarding `Cc1cc(-c2sc(N3CCOC(C)(C)C3)nc2CNC(=O)c2cc(C)on2)cc(C)n1` [Compound 181, N-[[2-(2,2-dimethyl-4-morpholinyl)-5-(2,6-dimethyl-4-pyridinyl)-4-thiazolyl]methyl]-5-methyl-3-isoxazolecarboxamide], the Emax stood at 991% and the EC50 is 1.91 µM.
